Laboratory results taken from patent US9387220B2, “Method for inducing hepatocyte proliferation and uses thereof” (CAN-FITE BIOPHARMA LTD., priority 2007, dated 2016).
Read-outs that look alike come from different tables or passages of the source.

What was measured:
hepatocytes [1] = assay: PCNA staining of hepatocytes after partial hepatectomy; format: in vivo, rat; conditions: rats, 48 hours after partial hepatectomy; FIG. 5B
A2B adenosine receptor = target: T1, A2B adenosine receptor (Homo sapiens, UniProt P29275); assay: Binding affinity to adenosine A2B receptor
T1 sequence (P29275 1-332): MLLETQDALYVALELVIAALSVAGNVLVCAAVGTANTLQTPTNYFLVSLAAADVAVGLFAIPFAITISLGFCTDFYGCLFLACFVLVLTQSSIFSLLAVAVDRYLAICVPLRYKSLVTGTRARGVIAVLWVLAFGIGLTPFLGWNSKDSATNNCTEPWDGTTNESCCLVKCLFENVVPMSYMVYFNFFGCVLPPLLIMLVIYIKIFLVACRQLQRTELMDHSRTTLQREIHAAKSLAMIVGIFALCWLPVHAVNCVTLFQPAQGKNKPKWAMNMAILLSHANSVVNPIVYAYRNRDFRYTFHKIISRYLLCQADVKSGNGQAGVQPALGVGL

hepatocytes [2] = assay: Hepatocyte proliferation of regenerated liver after partial hepatectomy; format: in vivo, rat; conditions: rats, 70% hepatectomy, 100 μg/kg orally TID; control group 30%; FIG. 1
[3] = Human studies with orally-administered Cl-IB-MECA, plasma half life; format: in vivo; conditions: oral administration, read-out: half life in human plasma from peak concentration
Source text: An effective amount of an active agent may also be determined based on human PK studies. […] On the basis of said human trials twice daily administration appears to be a preferred administration regiment. […] On the basis of this human data, the administration regiment in human subjects may preferably be once or twice daily although other regiments cannot be excluded.

liver [4] = assay: Serum levels of liver enzymes ALT and AST after partial hepatectomy with ischemia/reperfusion; format: in vivo, rat
liver [5] = assay: Liver regeneration (liver weight) after partial hepatectomy; format: in vivo, rat; conditions: rats, 24 and 48 hours after partial hepatectomy; FIG. 6
Experimental: Male Wistar rats (275-300 g) were fasted 12 h before the procedure. The rats were anaesthetized with Ketamin (45 mg/kg) and Xylazine (5 mg/kg). Laparatomy was performed via a sub costal, bilateral incision. The main portal pedicle to the total liver was clamped for a period of 10 minutes, during which, a 70% hepatectomy was performed. After 10 minutes of ischemia (in the course of the hepatectomy), blood flow was restored by de-clamping.
Rats underwent laparatomy and the main portal pedicle to the total liver was clamped for a period of 10 minutes, during which a 70% hepatectomy was performed. After 10 minutes of ischemia blood flow was restored by de-clamping.
Livers were collected 24 and 48 hours after the partial […]. The growth of residual liver lobes was assessed using the following equation: […]
A is the estimated total liver weight before hepatectomy (3.4% of a rat's total weight),
B is the weight of liver resected during the hepatectomy, and
C is the weight of the regenerated liver at the end of the study.

[6] = oral administration; cited from earlier work
[7] = mice; cited from earlier work

Row | IC50 (A2B adenosine receptor; read-out: IC50) [µM] | Ki (A2B adenosine receptor; read-out: Ki) [µM] | Structure (SMILES) | number of PCNA positive hepatocytes vs vehicle (hepatocytes [1]) | IC50 (A2B adenosine receptor) | Ki (A2B adenosine receptor) | level of regeneration (hepatocyte proliferation) (hepatocytes [2]) [%] | half-life [3] [h] | ALT serum level vs control group (liver [4]; rats, 2, 4 and 48 hours after partial hepatectomy, 100 μg/kg orally TID, FIG. 2A) | AST serum level vs control group (liver [4]; rats, 2, 4 and 48 hours after partial hepatectomy, 100 μg/kg orally TID, FIG. 2B) | serum levels of liver enzymes (AST and ALT) vs vehicle and untreated rats (liver [4]; rats, partial hepatectomy, further assay, FIG. 3) | liver weight (% of regeneration) vs vehicle (liver [5]) | half life in human plasma from peak concentration [6] [h] | half life [7] [h]
1 | – | – | CNC(=O)[C@H]1O[C@@H](n2cnc3c(NCc4cccc(I)c4)nc(Cl)nc32)[C@H](O)[C@@H]1O [Cl-IB-MECA, 2-chloro-N^6-(3-iodobenzyl)-adenosine-5′-N-methyl-uronamide] | significantly increased | No activity | No activity | 45.1 | 12 to 14 | significantly decreased | significantly decreased | reduction | increase | – | –
2 | 47.6 | 42.3 | CNC(=O)[C@H]1O[C@@H](n2cnc3c(NCc4cccc(I)c4)ncnc32)[C@H](O)[C@@H]1O [IB-MECA, 1-deoxy-1-{6-[({3-iodophenyl}methyl)amino]-9H-purine-9-yl}-N-methyl-β-D-ribofuranuronamide] | – | – | – | – | – | – | – | – | – | 8 to 10 | 1.5
